Test results taken from ChEMBL document CHEMBL1131167, “Structure-activity relationships of a series of analogues of the octadecaneuropeptide ODN on calcium mobilization in rat astrocytes” (1998).
Peptide text beside a SMILES is read from it.

Legend:
Type in all cases: functional
Rattus norvegicus [1] = species: Rattus norvegicus; assay: Effect of compound on basal [Ca2+] and ODN induced [Ca2+] increase in cultured rat astrocytes measured at 10*e-6 conc (M)
Rattus norvegicus [2] = species: Rattus norvegicus; assay: Effect of compound on basal [Ca2+] and ODN induced [Ca2+] increase in cultured rat astrocytes measured at 10*e-8+10e-6 conc (M) in the presence of [D-Thr9]-ODN
Rattus norvegicus [3] = species: Rattus norvegicus; assay: Effect of compound on basal [Ca2+] and ODN induced [Ca2+] increase in cultured rat astrocytes measured at 10*e-8+10e-6 conc (M) in the presence of [D-Leu5-]OP
Rattus norvegicus [4] = species: Rattus norvegicus; assay: Effect of compound on basal [Ca2+] and ODN induced [Ca2+] increase in cultured rat astrocytes measured at 10*e-8+10e-6 conc (M) in the presence of [Ala9]ODN. p<0.001
Rattus norvegicus [5] = species: Rattus norvegicus; assay: Effect of compound on basal [Ca2+] and ODN induced [Ca2+] increase in cultured rat astrocytes measured at 10*e-8+10e-6 conc (M) in the presence of [D-Leu15]-ODN
Rattus norvegicus [6] = species: Rattus norvegicus; assay: Effect of compound on basal [Ca2+] and ODN induced [Ca2+] increase in cultured rat astrocytes measured at 10*e-8 conc (M).
Rattus norvegicus [7] = species: Rattus norvegicus; assay: Effect of compound on basal [Ca2+] and ODN induced [Ca2+] increase in cultured rat astrocytes measured at 10*e-8+10e-6 conc (M) in the presence of [Ala15]ODN. p<0.001

| Structure (SMILES) | [Ca2+] variation (Rattus norvegicus [1]) | [Ca2+] variation (Rattus norvegicus [2]) | [Ca2+] variation (Rattus norvegicus [3]) | [Ca2+] variation (Rattus norvegicus [4]) | [Ca2+] variation (Rattus norvegicus [5]) | [Ca2+] variation (Rattus norvegicus [6]) | [Ca2+] variation (Rattus norvegicus [7]) |
| --- | --- | --- | --- | --- | --- | --- | --- |
| CC(C)C[C@H](NC(=O)CNC(=O)[C@@H]1CCCN1C(=O)[C@@H](N)CCCNC(=N)N)C(=O)N[C@@H](C)C(=O)N[C@@H](CC(=O)O)C(=O)N[C@@H](CC(C)C)C(=O)N[C@@H](CCCCN)C(=O)O (H-RPGLADLK-OH) | 37 nM | – | – | – | – | – | – |
| CC(C)C[C@H](NC(=O)CNC(=O)[C@@H]1CCCN1C(=O)[C@H](CCCN=C(N)N)NC(=O)[C@H](CC(=O)O)NC(=O)[C@@H](NC(=O)[C@H](CC(N)=O)NC(=O)[C@@H](NC(=O)[C@H](CC(=O)O)NC(=O)CNC(=O)[C@@H](NC(=O)[C@@H](NC(=O)[C@H](C)NC(=O)[C@@H](N)CCC(N)=O)[C@@H](C)O)C(C)C)C(C)C)[C@@H](C)O)C(=O)N[C@@H](CC(C)C)C(=O)N[C@@H](CC(=O)O)C(=O)N[C@@H](CC(C)C)C(=O)N[C@@H](CCCCN)C(=O)O [QATVGDVNTDRPGLLDLK] (H-QATVGDVNTDRPGLLDLK-OH) | – | 31 nM | 39 nM | 39 nM | 25 nM | 62 nM | 36 nM |
